Experimental data taken from the supplement of paper PMC10307832.

How the values were obtained:
Test in all cases: relative viability (nuclei count vs DMSO), 5 days (fraction); higher = more cells survive
Lenalidomide = compound: Nc1cccc2c1CN(C1CCC(=O)NC1=O)C2=O [Lenalidomide]
In short: (§1)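 After an overnight hold at 37 °C, lung cancer cell lines in 1536-well plates were pinned with five library-drug doses (not always all listed), each √10 from the next, on vehicle-anchored plates. The cells stayed 5 days without fresh medium, then a one-step fix, permeabilisation and Hoechst stain preceded 4× imaging and MetaXpress nuclear counts. A plate passed only with control CV under 25% and at least one doubling. Viability is the median, over plates, of treated-well nuclei relative to vehicle-well nuclei.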

Luminespib = compound: CCNC(=O)c1noc(-c2cc(C(C)C)c(O)cc2O)c1-c1ccc(CN2CCOCC2)cc1 [Luminespib]
In short: as §1

MIM1 = compound: CC1=CSC(=NC2CCCCC2)N1/N=C/C3=C(C(=C(C=C3)O)O)O [MIM1]
In short: as §1

Saracatinib = compound: CN1CCN(CCOc2cc(OC3CCOCC3)c3c(Nc4c(Cl)ccc5c4OCO5)ncnc3c2)CC1 [Saracatinib]
In short: as §1

Nilotinib = compound: Cc1cn(-c2cc(NC(=O)c3ccc(C)c(Nc4nccc(-c5cccnc5)n4)c3)cc(C(F)(F)F)c2)cn1 [Nilotinib]
In short: as §1

Row | Cell Line | relative viability (Lenalidomide; 0.253 µM) | relative viability (Lenalidomide; 0.8 µM) | relative viability (Lenalidomide; 2.53 µM) | relative viability (Lenalidomide; 8 µM) | relative viability (Luminespib; 0.002 µM) | relative viability (Luminespib; 0.006325 µM) | relative viability (Luminespib; 0.01 µM, anchor plate) | relative viability (Luminespib; 0.02 µM) | relative viability (Luminespib; 0.06325 µM) | relative viability (Luminespib; 0.2 µM) | relative viability (MIM1; 0.2 µM) | relative viability (MIM1; 0.6325 µM) | relative viability (MIM1; 2 µM) | relative viability (MIM1; 6.325 µM) | relative viability (MIM1; 20 µM) | relative viability (Saracatinib; 0.02 µM) | relative viability (Saracatinib; 0.6325 µM) | relative viability (Saracatinib; 2 µM) | relative viability (Nilotinib; 0.001 µM) | relative viability (Nilotinib; 0.003162 µM) | relative viability (Nilotinib; 0.01 µM) | relative viability (Nilotinib; 0.03162 µM) | relative viability (Nilotinib; 0.1 µM) | relative viability (Saracatinib; 0.2 µM)
1 | NCI-H1734 | 1.01 | 1.07 | 1.09 | 0.798 | 0.999 | 0.902 | 0.198 | 0.634 | 0.159 | 0.15 | 1.02 | 0.871 | 0.953 | 0.476 | 0.182 | 1.06 | 0.86 | 0.783 | 0.918 | 1.14 | 1.21 | 0.687 | 0.402 | –
2 | LCLC-103H | 0.97 | 1 | 0.988 | 0.783 | 0.982 | 1.01 | 0.954 | 0.941 | 1.02 | 0.83 | 1.02 | 0.976 | 0.973 | 0.742 | 0.53 | 0.944 | 1.02 | 0.963 | 1.01 | 1.08 | 1.12 | 0.975 | 0.804 | 0.884
3 | BEN | 1.09 | 0.892 | 1.12 | 0.731 | 0.944 | 0.925 | 0.383 | 0.442 | 0.656 | 0.355 | 1.02 | 0.914 | 1.01 | 0.853 | 0.323 | 1.11 | 1.05 | 0.759 | 0.876 | 1.03 | 0.929 | 0.926 | 0.786 | 0.755
4 | NCI-H2405 | 0.969 | 0.909 | 1.01 | 0.831 | 1.07 | 0.837 | 0.686 | 0.831 | 0.274 | 0.212 | 1.02 | 1.08 | 1.05 | 0.742 | 0.573 | 0.985 | 0.775 | 0.52 | 0.994 | 0.975 | 0.966 | 0.821 | 0.551 | 0.861
5 | ABC-1 | 1.01 | 0.774 | 0.993 | 0.825 | 0.993 | 0.865 | 0.718 | 0.63 | 0.239 | 0.2 | 0.902 | 1.15 | 0.9 | 0.485 | 0.264 | 0.942 | 1 | 0.899 | 1 | 0.907 | 1.05 | 0.78 | 0.322 | 0.811
6 | 201T | 0.985 | 0.835 | 1.01 | 0.96 | 0.973 | 0.896 | 1.06 | 0.88 | 0.969 | 0.295 | 1 | 1 | 0.987 | 0.555 | 0.483 | 0.99 | 0.923 | 0.722 | – | 1.11 | 0.979 | 1.02 | 0.47 | 0.826
7 | UMC-11 | 0.999 | 0.846 | 1.09 | 0.778 | 0.962 | 0.976 | 1.03 | 0.471 | 0.587 | 0.221 | 0.962 | 0.725 | 1.08 | 0.747 | 0.284 | 0.971 | 1.02 | 0.807 | 0.934 | 1.09 | 1.15 | 0.686 | 0.863 | 0.729
8 | HCC-44 | 1.01 | 0.68 | 0.992 | 0.78 | 0.969 | 1.01 | 1.09 | 0.997 | 0.55 | 0.225 | 1.01 | 0.969 | 0.661 | 0.604 | 0.203 | 1.06 | 1.04 | 1.03 | 1 | 0.921 | 0.93 | 0.949 | 0.722 | 0.878
9 | LK-2 | 0.985 | 0.956 | 1.14 | 0.906 | 1.03 | 1.02 | 0.204 | 0.556 | 0.258 | 0.154 | 1.01 | 1.04 | 0.858 | 0.957 | 0.262 | 0.925 | 0.788 | 0.484 | 0.89 | 0.903 | 1.08 | 0.729 | 0.875 | 0.823
10 | NCI-H2126 | 1.01 | 0.859 | 1.08 | 0.788 | 0.967 | 0.962 | 0.919 | 0.646 | 0.756 | 0.26 | 1.04 | 0.91 | 1.04 | 0.897 | 0.688 | 1.07 | 0.931 | 0.816 | 0.995 | 1.09 | 1.03 | 0.937 | 0.601 | 0.965
11 | NCI-H1650 | 0.828 | 0.857 | 1.23 | 1.12 | 1.02 | 0.823 | 0.199 | 0.228 | 0.122 | 0.138 | 0.908 | 0.949 | 0.654 | 0.189 | 0.148 | 0.814 | 0.737 | 0.581 | 0.912 | 1.22 | 1.12 | 0.931 | 0.598 | 0.689
12 | HOP-62 | 0.943 | 0.963 | 1.05 | 0.93 | 1.05 | 0.969 | 0.912 | 1.01 | 0.659 | 0.249 | 1.02 | 0.942 | 0.782 | 0.74 | 0.204 | 1.02 | 1.19 | 1.14 | 0.953 | 0.958 | 0.948 | 0.698 | 0.462 | 0.968
13 | LC-2-ad | 1.04 | 0.862 | 1.08 | 1.02 | 0.95 | 0.936 | 1.03 | 0.915 | 0.561 | 0.207 | 0.991 | 0.699 | 0.944 | 0.428 | 0.231 | 1.05 | 1.15 | 0.944 | 0.95 | 1.15 | 1.15 | 0.912 | 0.479 | 0.978
14 | LOU-NH91 | 1 | 0.873 | 0.95 | 0.905 | 0.995 | 0.922 | 0.364 | 0.717 | 0.334 | 0.376 | 0.863 | 0.903 | 0.809 | 0.758 | 0.394 | 0.945 | 0.834 | 0.66 | 0.961 | 0.944 | 0.973 | 0.981 | 0.967 | 0.741
